The record followed here is patent US12295936B2, “Immunomodulating urea azalides” (Zoetis Services LLC, priority 2020, dated 2025).

As a reminder, the IC50 is the concentration that gives 50% inhibition.

The subject of one assay is IL-6. In words: LPS-stimulated whole bovine blood assay, MSD cytokine detection. The format is cell-based. The note with it: Bos taurus, LPS-stimulated bovine whole blood; read-out: IL-6 (IC50 μM). From the text:
In order to correlate RNA sequencing data to cytokine changes the whole blood assay was utilized. […] The enhancement result represents an overall stimulation of cytokine levels due to cellular stress or potential toxicity with increasing concentrations of the compound, representing a typical bell shape response curve for immunomodulatory activity.

A further assay deals with TNF-α. Described as above. The assay is classed as cell-based. The settings on record: Bos taurus, LPS-stimulated bovine whole blood; read-out: TNF-α (IC50 μM).
For assay [1], the system named is BRD pathogens, M. haemolytica and P. multocida. In words: MIC screening panel of BRD pathogens (antibacterial / non-antibacterial). The note with it: read-out: antibacterial / non-antibacterial (MIC for the BRD pathogens).
Another assay concerns IL-1β. In words: LPS-stimulated whole bovine blood assay, MSD cytokine detection. The note with it: overstimulation of IL-1β, LPS-stimulated bovine whole blood. The assay is classed as cell-based.

In the case of `CC[C@H]1OC(=O)[C@H](C)[C@@H](O[C@H]2C[C@@](C)(OC)[C@](O)(CNCCCn3ccnc3)[C@H](C)O2)[C@H](C)[C@@H](O[C@@H]2O[C@H](C)C[C@H](N(C)C(=O)N(C)c3ccccc3)[C@H]2O)[C@](C)(O)C[C@@H](C)CN[C@H](C)[C@@H](O)[C@]1(C)O` [Example H-25, 1-((2S,3R,4S,6R)-2-(((2R,3S,4R,5R,8R,10R,11R,12S,13S,14R)-13-(((2R,4R,5S,6S)-5-(((3-(1H-imidazol-1-yl)propyl)amino)methyl)-5-hydroxy-4-methoxy-4,6-dimethyltetrahydro-2H-pyran-2-yl)oxy)-2-ethyl-3,4,10-trihydroxy-3,5,8,10,12,14-hexamethyl-15-oxo-1-oxa-6-azacyclopentadecan-11-yl)oxy)-3-hydroxy-6-methyltetrahydro-2H-pyran-4-yl)-1,3-dimethyl-3-phenylurea], the values for the 50% inhibitory concentration (IC50) in the assay on IL-6 and with TNF-α were 22 µM and 19 µM, respectively. In addition, the MIC in assay [1] is greater than 64 µg/mL. In the assay with IL-1β, the “IL-1β OS of LPS” value came to 16 µM.

Take `CC[C@H]1OC(=O)[C@H](C)[C@@H](O[C@H]2C[C@@](C)(OC)[C@](O)(CN3CCOCC3)[C@H](C)O2)[C@H](C)[C@@H](O[C@@H]2O[C@H](C)C[C@H](N(C)C(=O)N(C)c3ccccc3)[C@H]2O)[C@](C)(O)C[C@@H](C)CN[C@H](C)[C@@H](O)[C@]1(C)O` [Example J-10, 1-((2S,3R,4S,6R)-2-(((2R,3S,4R,5R,8R,10R,11R,12S,13S,14R)-2-ethyl-3,4,10-trihydroxy-13-(((2R,4R,5S,6S)-5-hydroxy-4-methoxy-4,6-dimethyl-5-(morpholinomethyl)tetrahydro-2H-pyran-2-yl)oxy)-3,5,8,10,12,14-hexamethyl-15-oxo-1-oxa-6-azacyclopentadecan-11-yl)oxy)-3-hydroxy-6-methyltetrahydro-2H-pyran-4-yl)-1,3-dimethyl-3-phenylurea]: the IC50 was 45 µM in the assay with IL-6 and 20 µM with TNF-α. Besides, in assay [1], the MIC is greater than 64 µg/mL. Besides, the “IL-1β OS of LPS” value in the assay with IL-1β was found to be 40 µM.

On to `CC[C@H]1OC(=O)[C@H](C)[C@@H](O[C@H]2C[C@@](C)(OC)[C@](O)(CN(C)C3CCC3)[C@H](C)O2)[C@H](C)[C@@H](O[C@@H]2O[C@H](C)C[C@H](N(C)C(=O)N(C)c3ccccc3)[C@H]2O)[C@](C)(O)C[C@@H](C)CN[C@H](C)[C@@H](O)[C@]1(C)O` [Example H-37, 1-((2S,3R,4S,6R)-2-(((2R,3S,4R,5R,8R,10R,11R,12S,13S,14R)-13-(((2R,4R,5S,6S)-5-((cyclobutyl(methyl)amino)methyl)-5-hydroxy-4-methoxy-4,6-dimethyltetrahydro-2H-pyran-2-yl)oxy)-2-ethyl-3,4,10-trihydroxy-3,5,8,10,12,14-hexamethyl-15-oxo-1-oxa-6-azacyclopentadecan-11-yl)oxy)-3-hydroxy-6-methyltetrahydro-2H-pyran-4-yl)-1,3-dimethyl-3-phenylurea], for which the figures for the IC50 with IL-6 and with TNF-α were 12 µM and 8 µM, respectively. Moreover, the MIC in assay [1] is greater than 64 µg/mL. Further, the “IL-1β OS of LPS” value in the assay on IL-1β was 40 µM.

As to `CC[C@H]1OC(=O)[C@H](C)[C@@H](O[C@H]2C[C@@](C)(OC)[C@@H](O)[C@H](C)O2)[C@H](C)[C@@H](O[C@@H]2O[C@H](C)C[C@H](N(C)C(=O)Nc3ccc(F)cc3)[C@H]2O)[C@](C)(O)C[C@@H](C)CN(C)[C@H](C)[C@@H](O)[C@]1(C)O` [Example B-9, 1-((2S,3R,4S,6R)-2-(((2R,3S,4R,5R,8R,10R,11R,12S,13S,14R)-2-ethyl-3,4,10-trihydroxy-13-(((2R,4R,5S,6S)-5-hydroxy-4-methoxy-4,6-dimethyltetrahydro-2H-pyran-2-yl)oxy)-3,5,6,8,10,12,14-heptamethyl-15-oxo-1-oxa-6-azacyclopentadecan-11-yl)oxy)-3-hydroxy-6-methyltetrahydro-2H-pyran-4-yl)-3-(4-fluorophenyl)-1-methylurea], the IC50 with IL-6 came out at 116 µM; in the assay on TNF-α, 107 µM. Besides, in assay [1], the MIC is greater than 64 µg/mL. In the assay with IL-1β, the “IL-1β OS of LPS” value is 28 µM.
